Test results as given in patent US20250049871A1, “PHARMACEUTICAL COMBINATION FOR TREATING OR PREVENTING EPILEPSY AND THE USE THEREOF” (priority 2023, published 2025).

Assays:
Type in all cases: in vivo, Sprague-Dawley rats
[1] = system: cerebral cortex and hippocampus CA1/CA3 nerve cells; experiment: Nissl staining of brain tissue after KA injection; conditions: pretreatment; three days after KA 15 mg/kg i.p.; p<0.05 vs KA group
Procedure: (§1) Continuing from Example 3, the experimental animals in each group were sacrificed three days after intraperitoneal injection of KA (15 mg/kg), and the brain tissues were taken out for sectioning and other relevant experimental analysis.

[2] = system: CA1/CA3 degenerative cells in the cerebral cortex and hippocampus; experiment: Fluoro-Jade B (FJB) staining of brain tissue after KA injection; conditions: pretreatment; three days after KA 15 mg/kg i.p.; p<0.05 vs KA group
Procedure: as §1
This phenomenon can also be reduced by the pretreatment with the birch sap extract and betulin (p<0.05; FIGS. 4A and 4B).

[3] = system: KA-induced seizures; experiment: kainic acid (KA)-induced epilepsy model in animals, epileptic behavior by Racine scale; conditions: for Death: dead/total rats; for Seizure %: share of rats with seizures; for Seizure stage: then KA 15 mg/kg i.p., Racine scale within 4 hours
Procedure: Male Sprague-Dawley rats (SD rat, 150-200 g) were purchased from BioLASCO (Taiwan) and bred in Fu Jen Laboratory Animal Center. All animal experiments were approved by the IACUC of Fu Jen Catholic University. According to the 3R principles, all experiments were performed to minimize animal suffering and use the minimum number of animals necessary to produce reliable results.
The antiepileptic effect of the birch sap extract was evaluated using kainic acid (KA)-induced epilepsy model in animals. KA is an analogue of glutamate, and injection of KA into rats will increase the release of glutamate and overactivate glutamate receptors, resulting in progressive limbic seizures in rats. This phenomenon leads to increased calcium ions in nerve cells, oxidative stress, and loss of mitochondrial function, resulting in the death of nerve cells in many areas of the brain, especially in the cerebral cortex and hippocampus. In addition, KA-induced neuronal cell death is related to glial cell activation and inflammatory response caused by inflammatory molecules, such as interleukin-1β (IL-1β), interleukin-6 (IL-6), tumor necrosis factor-α (TNF-α), high mobility group Box 1 (HMGB1), interleukin 1 receptor 1 (IL-1R1), and Toll-like receptor-4 (TLR-4).
Epileptic behavioral expressions were analyzed within 4 hours after intraperitoneal injection of KA in rats.
Sprague-Dawley rats were divided into the following groups according to the administration of different test substances: • 1. Negative control group: normal saline • 2. KA group: 15 mg/kg/i.p./single dose of kainic acid (KA) • 3. Low-dose group of birch sap extract: 6 mg/kg of birch sap extract • 4. High-dose group of birch sap extract: 10 mg/kg of birch sap extract • 5. High-dose group of antiepileptic drug: 100 mg/kg of carbamazepine (CBZ) • 6. Antiepileptic pharmaceutical combination group: 6 mg/kg of birch sap extract and 50 mg/kg of CBZ • 7. Low-dose group of antiepileptic drug: 50 mg/kg of CBZ
The control group, birch sap extract groups, antiepileptic drug groups, and antiepileptic pharmaceutical combination group were fed with normal saline, birch sap extract and/or CBZ through feeding tubes at regular intervals every day. One week later, except for the negative control group, rats in each group were intraperitoneally injected with KA (15 mg/kg/i.p./single dose), and the dose of KA injection was based on the previous study. The epileptic behavior of rats was analyzed according to Racine scale (1972) within 4 hours after intraperitoneal injection of KA.

Question: With `C=C(C)[C@@H]1CC[C@]2(CO)CC[C@]3(C)[C@H](CC[C@@H]4[C@@]5(C)CC[C@H](O)C(C)(C)[C@@H]5CC[C@]43C)[C@@H]12` [betulin] as the compound, how does the “number of neurocytes in cerebral cortex and hippocampus CA1/CA3 (Nissl staining)” value [1] read?
Answer: reduce the decrease in the number of neurocytes

Question: And the “number of CA1/CA3 degenerative cells in the cerebral cortex and hippocampus (FJB staining)” value [2]?
Answer: reduced

Question: What does the source list for `NC(=O)N1c2ccccc2C=Cc2ccccc21` [CBZ, carbamazepine]?
Answer: Death ([3]; CBZ 50 mg/kg + KA): 0/3; Latency to first seizure ([3]; CBZ 50 mg/kg + KA, mean ± SEM): 89 ± 17 min; Seizure % ([3]; CBZ 50 mg/kg + KA): 66%; Seizure stage ([3]; CBZ 50 mg/kg oral daily for one week, mean ± SEM): 3.6 ± 0.3; Latency to first seizure ([3]; CBZ 100 mg/kg + KA): 140 min; Death ([3]; CBZ 100 mg/kg + KA): 1/11; Seizure % ([3]; CBZ 100 mg/kg + KA): 10%; Seizure stage ([3]; CBZ 100 mg/kg oral daily for one week, mean ± SEM): 0.9 ± 0.5; time and severity of seizures compared with the KA group ([3]; low-dose group of antiepileptic drug, CBZ 50 mg/kg): not statistically different
